Reference: publication doi:10.1101/2023.04.17.537234, “A biophysical rationale for the selective inhibition of PTP1B over TCPTP by nonpolar terpenoids” (bioRxiv, 2023)

Legend:
PTP1B [1] = experiment: pNPP enzyme kinetics, inhibition by amorphadiene; assay type: biochemical, H. Sapiens
Experimental: (§1) We overexpressed all proteins examined in this study in BL21(DE3) cells by carrying out steps described previously: (i) We used Gibson assembly to introduce mutations for PTP1B or TCPTP encoded by a pET16b vector and transformed sequence-confirmed plasmids into BL21(DE3) cells. (ii) We used an individual colony from each transformation to inoculate 20 mL of LB media, which we incubated at 37°C in an incubator-shaker (225 rpm) for 6 hours, prior to inoculating 1 L of rich induction media (20 g tryptone, 10 g yeast extract, 5 g sodium chloride, 50 μg/mL carbenicillin, 72 mL 5X M9 salts solution, 20 mL of 20% glucose solution). (iii) We grew the resulting inoculum at 37°C and 225 rpm. (iv) At an OD600 of 0.5–0.8, we added 500 μM IPTG to induce protein expression and incubated the induced flasks at 22°C and 225 rpm for 18–20 hours. (v) We pelleted the final culture (5000 rpm for 10 minutes in a Beckman J2-HS floor centrifuge), disposed of the supernatants, and stored the cell pellets at −80°C freezer for future purification. We purified PTP variants with fast protein liquid chromatography (FPLC) using previously described protocols. In brief, we lysed cells with chemical lysis buffer (for each gram of cell pellet, we used 4 mL of 20 mM tris base, 50 mM sodium chloride, 1% Triton X-100, and pH 7.5 supplemented with 2 mg MgSO4–7H2O, 2 mg TAME, 0.5 mL TCEP (0.5 mM), 3.75 μL PMSF solution, 1 mg lysozyme, and 30 U DNase), removed protein debris with saturated ammonium sulfate (20% for PTP1B variants and 10% TCPTP variants, respectively), and extracted the supernatant. We purified PTPs by using nickel affinity chromatography (HisTrap HP with 50 mM Tris-HCl, 300 mM sodium chloride, and 0.5 mM TCEP at pH 7.5 with and without 500 mM imidazole) followed by anion exchange chromatography (HiTrap HP 5 mL with 50 mM HEPES, and 0.5 mM TCEP at pH 7.5 with and without 1 M NaCl). We concentrated final protein fractions into NaCl-free anion exchange buffer ([…], Sartorius) and stored them in 20% glycerol at −80°C.
(§2) We characterized the activity of PTP variants on p-nitrophenyl phosphate (pNPP). In brief, we used 96-well plates to prepare 200-μL reactions with 50 nM enzyme, 50 μg/mL BSA, and varying amorphadiene concentrations (0.5 – 500 μM) in 50 mM HEPES buffer (pH = 7.3) with 10% DMSO. We used 20 mM substrate to initialize the reactions and monitored the formation of p-nitrophenol (pNP) by measuring absorbance at 405 nm at 30-s intervals over 8 minutes (SpectraMax iD3 plate reader). We used standard curves to convert absorbance measurements to product concentrations and used the slopes of the initial rate regime for Vo.

TCPTP = experiment: pNPP enzyme kinetics, inhibition by amorphadiene; assay type: biochemical, H. Sapiens
Experimental: as §1, §2

PTP1B [2] = settings: PTP1B over TCPTP; cited from earlier work
Solubility = assay type: physicochemical

Compound | IC50 of AD, mutant vs wild-type (PTP1B [1]; PTP1B L158F vs wild-type) | IC50 of AD, mutant vs wild-type (PTP1B [1]; PTP1B M282K) | IC50 of AD, mutant vs wild-type (PTP1B [1]; PTP1B Q290R) | IC50 of AD, mutant vs wild-type (TCPTP; TCPTP K280M) | IC50 of AD, mutant vs wild-type (TCPTP; TCPTP L158F vs wild-type) | IC50 of AD, mutant vs wild-type (TCPTP; TCPTP R288Q) | selectivity: inhibits PTP1B more potently than TCPTP (PTP1B [2]) | solubility (Solubility)
C=C(C)[C@@H]1CC[C@@H](C)[C@@H]2CCC(C)=C[C@@H]21 [AD, amorphadiene] | indistinguishable | reduced potency | reduced potency | no effect on IC50 | indistinguishable | no effect on IC50 | 5–7 X | –
CCc1oc2cc(S(=O)(=O)Nc3ccc(S(=O)(=O)Nc4nccs4)cc3)ccc2c1C(=O)c1cc(Br)c(O)c(Br)c1 [BBR, 3-(3,5-Dibromo-4-hydroxy-benzoyl)-2-ethyl-benzofuran-6-sulfonic-acid-(4-(thiazol-2-ylsulfamyl)-phenyl)-amide, reference compound] | – | – | – | – | – | – | 5–6 X | –
CC(C)=CCC=C(C)C1CC=C(C)CC1 (stereo not drawn) [AB, α-bisabolene] | – | – | – | – | – | – | 5–7 X | low solubility
